Values quoted from earlier work, collected in US20090208944A1 (priority 2005, published 2009).

Biological target: CYP2D6 enzyme system (Homo sapiens, UniProt P10635)
Details: classification from literature

CYP2D6 enzyme system, sequence (P10635 whole entry): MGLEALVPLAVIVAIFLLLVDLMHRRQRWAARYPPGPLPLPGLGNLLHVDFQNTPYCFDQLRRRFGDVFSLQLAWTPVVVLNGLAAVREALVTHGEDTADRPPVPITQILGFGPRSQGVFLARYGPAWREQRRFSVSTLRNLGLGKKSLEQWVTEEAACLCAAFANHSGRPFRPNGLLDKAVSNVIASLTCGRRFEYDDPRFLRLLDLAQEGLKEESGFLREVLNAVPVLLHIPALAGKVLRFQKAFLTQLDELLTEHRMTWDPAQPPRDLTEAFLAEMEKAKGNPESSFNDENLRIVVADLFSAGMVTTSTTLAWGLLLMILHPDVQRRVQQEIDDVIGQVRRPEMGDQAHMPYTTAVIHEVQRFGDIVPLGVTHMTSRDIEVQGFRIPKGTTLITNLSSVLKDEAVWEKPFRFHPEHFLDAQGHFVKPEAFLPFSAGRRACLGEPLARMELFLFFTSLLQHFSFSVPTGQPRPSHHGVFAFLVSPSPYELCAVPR

Compound	potency as inhibitor of the CYP2D6 enzyme system
CN/C(=N/CCSCc1nc[nH]c1C)NC#N [cimetidine]	Moderate
O=C(CCCN1CCC(O)(c2ccc(Cl)cc2)CC1)c1ccc(F)cc1 [haloperidol]	Moderate
Fc1ccc([C@@H]2CCNC[C@H]2COc2ccc3c(c2)OCO3)cc1 [paroxetine]	Potent

Second part, the compound after the results:

potency as inhibitor of the CYP2D6 enzyme system	Compound
Moderate	CN(C)CCC=C1c2ccccc2COc2ccccc21 [doxepin]
Moderate	CN[C@H]1CC[C@@H](c2ccc(Cl)c(Cl)c2)c2ccccc21 [sertraline]
